Test: Stability of the compound assessed as half life in 1M sodium acetate buffer of pH 4.5 at 37 degC
Assay type: physicochemical

half-life [min] | SMILES
23 | COC(=O)[C@H](CCCCNC(=O)Cc1ccc(N=C2C(=O)N(Cc3ccc(OC)cc3)c3c(Br)cc(Br)cc32)cc1)NC(C)=O (mixture of isomers)
33 | COC(=O)[C@H](CCCCNC(=O)Cc1cccc(N=C2C(=O)N(Cc3ccc(OC)cc3)c3c(Br)cc(Br)cc32)c1)NC(C)=O (mixture of isomers)
